From patent EP0747380B1, “Compounds and compositions with nitrogen-containing non-basic side chains” (ELI LILLY AND COMPANY, priority 1995, dated 1996)
Where “and” joins values, the source holds several entries; their conditions need not be identical. Equal values may be shown once. Read-outs that look alike come from different tables or passages of the source. Marks after values point to notes of the source that are not given here.

Columns and labels:
[1] = tested on: MCF-7 breast adenocarcinoma cells; test: MCF-7 proliferation assay (tritiated thymidine incorporation); format: cell-based; settings: Homo sapiens, MCF7; MCF-7 cells, 48 hours with drug, tritiated thymidine pulse 4 hours; read-out: ED50 (the source's name)
Experimental: MCF-7 breast adenocarcinoma cells (ATCC HTB 22) were maintained in MEM (minimal essential medium, phenol red-free, Sigma, St. Louis, MO) supplemented with 10% fetal bovine serum (FBS) (V/V), L-glutamine (2 mM), sodium pyruvate (1 mM), HEPES {(N-[2-hydroxyethyl]piperazine-N'-[2-ethanesulfonic acid]10 mM}, non-essential amino acids and bovine insulin (1 µg/ml) (maintenance medium). Ten days prior to assay, MCF-7 cells were switched to maintenance medium supplemented with 10% dextrancoated charcoal stripped fetal bovine serum (DCC-FBS) assay medium) in place of 10% FBS to deplete internal stores of steroids. MCF-7 cells were removed from maintenance flasks using cell dissociation medium (Ca++/Mg++ free HBSS (phenol red-free) supplemented with 10 mM HEPES and 2 mM EDTA). Cells were washed twice with assay medium and adjusted to 80,000 cells/ml. […] Serial dilutions of drugs or DMSO as a diluent control were prepared in assay medium and […] to triplicate microcultures followed by 50 ml assay medium for a final volume of […]. After an additional 48 hours at 37° C in a 5% CO2 humidified incubator, microcultures were pulsed with tritiated thymidine (1 uCi/well) for 4 hours. Cultures were terminated by freezing at -70° C for 24 hours followed by thawing and harvesting of microcultures. Samples were counted by liquid scintillation.

serum cholesterol = test: Serum cholesterol analysis, OVX rat, four day dosing regimen; format: in vivo, female Sprague Dawley rats; settings: for inhibition in vivo at 0.1 mg/kg / inhibition in vivo at 1 mg/kg / inhibition in vivo at 10 mg/kg: Rattus norvegicus, 96 h, read-out: Serum Cholesterol (% dec. OVX); for inhibition in vivo at 0.1 mg/kg / inhibition in vivo at 1 mg/kg / inhibition in vivo at 10 mg/kg / Serum Cholesterol (% dec. OVX): oral, daily for 4 days, OVX rats, * = significantly different than OVX control
Experimental: (§1) Animals were dosed daily for 4 days. […] A blood sample was collected by cardiac puncture.
Blood samples were allowed to clot at room temperature for 2 hours, and serum was obtained following centrifugation for 10 minutes at 3000 rpm. Serum cholesterol was determined using a Boehringer Mannheim Diagnostics high performance cholesterol assay. Briefly the cholesterol was oxidized to cholest-4-en-3-one and hydrogen peroxide. The hydrogen peroxide was then reacted with phenol and 4-aminophenazone in the presence of peroxidase to produce a p-quinone imine dye, which was read spectrophotemetrically at 500 nm. Cholesterol concentration was then calculated against a standard curve. The entire assay was automated using a Biomek Automated Workstation.

uterus = test: Uterine wet weight, post-menopausal (OVX) rat model, four day dosing regimen; format: in vivo, female Sprague Dawley rats; settings: for Uterine Weight (% inc. OVX): oral, daily for 4 days, OVX rats, * = significantly different than OVX control
Experimental: In the examples illustrating the methods, a post-menopausal model was used in which effects of different treatments upon various biological parameters were determined, including serum cholesterol concentration, uterine weight, eosinophil peroxidase activity, MCF-7 cell proliferation, and bone density.
as §1

[2] = tested on: eosinophil peroxidase activity; test: Uterine eosinophil peroxidase (EPO) assay, OVX rat, four day dosing regimen; settings: for Uterine EPO (Vmax): oral, daily for 4 days, OVX rats, * = significantly different than OVX control
Source text: (§2) Seventy-five day old female Sprague Dawley rats (weight range of 200 to 225 g) were obtained from Charles River Laboratories (Portage, MI). The animals were either bilaterally ovariectomized (OVX) or exposed to a sham surgical procedure (Intact) at Charles River Laboratories, and then shipped after one week. Upon arrival, they were housed in metal hanging cages in groups of 3 or 4 per cage and had ad libitum access to food (calcium content approximately 0.5%) and water for one week. […] The photoperiod in the room was 12 hours light and 12 hours dark.
(§3) After a one week acclimation period (therefore, two weeks post-OVX), daily dosing with test compound was initiated. 17α-Ethynyl estradiol (EE2) (Sigma Chemical Co., St. Louis, MO), an orally available form of estrogen, or the test compound were given orally, unless otherwise stated, as a suspension in 1% carboxymethyl cellulose or dissolved in 20% cyclodextrin. Animals were dosed daily for 4 days. Following the dosing regimen, animals were weighed and anesthetized with a ketamine:xylazine (2:1, v:v) mixture. A blood sample was collected by cardiac puncture. The animals were then sacrificed by asphyxiation with CO2, the uterus was removed through a midline incision, and a wet uterine weight was determined.
(§4) Uteri were kept at 4° C until time of enzymatic analysis. The uteri were then homogenized in 50 volumes of 50 mM Tris buffer (pH - 8.0) containing 0.005% Triton X-100. Upon addition of 0.01% hydrogen peroxide and 10 mM o-phenylenediamine (final concentrations) in Tris buffer, increase in absorbance was monitored for one minute at 450 nm. […] The maximal velocity of a 15 second interval was determined over the initial, linear portion of the reaction curve.

[3] = tested on: eosinophil peroxidase activity; settings: rat, in vivo, po
Source text: as §2, §3, §4

tibia density = test: Bone density assay, OVX rat, thirty-five day dosing regimen (single photon absorptiometry of tibia); format: in vivo, female Sprague Dawley rats; settings: OVX rats, oral, daily for 35 days, in 20% hydroxypropyl β-cyclodextrin
Experimental: Following the General Preparation procedure described above, the rats were treated daily for 35 days (6 rats per treatment group) and sacrificed by decapitation on the 36th day. The 35 day time period was sufficient to allow maximal effect on bone density, measured as described herein. At the time of sacrifice, the uteri were removed, dissected free of extraneous tissue, and the fluid contents were expelled before determination of wet weight in order to confirm estrogen deficiency associated with complete ovariectomy. […] The uteri were then placed in 10% neutral buffered formalin to allow for subsequent histological analysis.
The right tibias were excised and scanned at the distal metaphysis 1 mm from the patellar groove with single photon absorptiometry. Results of the densitometer measurements represent a calculation of bone density as a function of the bone mineral content and bone width.
In accordance with the procedures outlined above, compounds of the present invention and EE2 in 20% hydroxypropyl β-cyclodextrin were orally administered to test animals.

Structure (SMILES)	EC50 [1]	Uterine Weight (% inc. OVX) (uterus; Dose 0.1 mg/kg)	Uterine Weight (% inc. OVX) (uterus; Dose 1 mg/kg)	Uterine Weight (% inc. OVX) (uterus; Dose 10 mg/kg)	Uterine EPO (Vmax) ([2]; Dose 0.1 mg/kg)	Uterine EPO (Vmax) ([2]; Dose 1 mg/kg)	Uterine EPO (Vmax) ([2]; Dose 10 mg/kg)	inhibition in vivo at 0.1 mg/kg (serum cholesterol; Dose 0.1 mg/kg)	inhibition in vivo at 1 mg/kg (serum cholesterol; Dose 1 mg/kg)	inhibition in vivo at 10 mg/kg (serum cholesterol; Dose 10 mg/kg)	also measured
O=C(c1ccc(OCCN2CCCCC2=O)cc1)c1c(-c2ccc(O)cc2)sc2cc(O)ccc12 [Compound 3]	600 nM	13.3%	17.8%	57.6* %	8.0	7.8	8.9	38.1%	45.8%	72.4%	–
O=C(c1ccc(OCCN2CCCC2=O)cc1)c1c(-c2ccc(O)cc2)sc2cc(O)ccc12 [Compound 6]	–	-9%	15.4%	40.3* %	3.6	1.4	3.7	33.6%	52.4%	67.5%	–
COc1ccc(-c2sc3cc(OC)ccc3c2C(=O)c2ccc(OCC(=O)N3CCCCC3)cc2)cc1 [Compound 7]	–	-0.5%	-16.2%	8.4%	5.2	3.7	4.7	–	–	–	–
O=C(c1ccc(OCC(=O)N2CCCC2)cc1)c1c(-c2ccc(O)cc2)sc2cc(O)ccc12 [Compound 8]	10 nM	–	–	–	3.6 and 4.4	6.1 and 3.7	–	–	–	–	Serum Cholesterol (% dec. OVX) (serum cholesterol; Dose 0.1 mg/kg): 25.8%; Serum Cholesterol (% dec. OVX) (serum cholesterol; Dose 1 mg/kg): 69.6* % and 39.4* %; Serum Cholesterol (% dec. OVX) (serum cholesterol; Dose 10 mg/kg): 64.5* %; Uterine EPO (Vmax) ([2]; Dose 0.01 mg/kg): 3.5
O=C(c1ccc(OCC(=O)N2CCCCC2)cc1)c1c(-c2ccc(O)cc2)sc2cc(O)ccc12 [Compound 9]	10 nM	-10.0%	6.5%	51.7* %	2.8	3.6	32	4.2%	22%	74.3%	–
CCCCN(C)C(=O)COc1ccc(C(=O)c2c(-c3ccc(O)cc3)sc3cc(O)ccc23)cc1 [Compound 10]	50 nM	1.5%	-6.7%	38.0* %	4.3	3.1	17.0	-40%	19.1%	67.1%	–
CN(C)C(=O)COc1ccc(C(=O)c2c(-c3ccc(O)cc3)sc3cc(O)ccc23)cc1 [Compound 12]	–	-7.7%	15.4%	60.7* %	3.7	6.7	122.3*	27.8%	48.2%	71.2%	–
O=C(c1ccc(OCCN2C(=O)CCC2=O)cc1)c1c(-c2ccc(O)cc2)sc2cc(O)ccc12 [Compound 13]	> 1000 nM	22.2%	7.2%	-4.0%	1.9	1.7	2.5	37.6%	12.6%	30.1%	–
N#CCOc1ccc(C(=O)c2c(-c3ccc(O)cc3)sc3cc(O)ccc23)cc1 [Compound 14]	0.05 nM	18.8%	14.6%	–	3.3	2.4	–	3.3%	23.7%	–	–
CC(C#N)Oc1ccc(C(=O)c2c(-c3ccc(O)cc3)sc3cc(O)ccc23)cc1 (centres unmarked) [Compound 16]	0.02 nM	–	–	–	2.3	3.9	23.4	–	–	–	–

Continued, in another order:

EC50 [1]	Uterine Weight (% inc. OVX) (uterus; Dose 0.1 mg/kg)	Uterine Weight (% inc. OVX) (uterus; Dose 1 mg/kg)	Uterine Weight (% inc. OVX) (uterus; Dose 10 mg/kg)	Uterine EPO (Vmax) ([2]; Dose 0.1 mg/kg)	Uterine EPO (Vmax) ([2]; Dose 1 mg/kg)	Uterine EPO (Vmax) ([2]; Dose 10 mg/kg)	Structure (SMILES)	inhibition in vivo at 0.1 mg/kg (serum cholesterol; Dose 0.1 mg/kg)	inhibition in vivo at 1 mg/kg (serum cholesterol; Dose 1 mg/kg)	inhibition in vivo at 10 mg/kg (serum cholesterol; Dose 10 mg/kg)	also measured
500 nM	–	–	–	3.2	3.6	3.6	O=C(NCCOc1ccc(C(=O)c2c(-c3ccc(O)cc3)sc3cc(O)ccc23)cc1)c1ccccc1 [Compound 18]	–	–	–	–
0.1 nM	7%	–	–	5.4	3.7	–	CC(=O)N(CCOc1ccc(C(=O)c2c(-c3ccc(O)cc3)sc3cc(O)ccc23)cc1)C1CCCCC1 [Compound 19]	14.5%	–	–	–
0.1 nM	-29.9%	-27.4%	-32.7%	3.0	2.5	2.9	O=C(NCCOc1ccc(C(=O)c2c(-c3ccc(O)cc3)sc3cc(O)ccc23)cc1)NC1CCCCC1 [Compound 20]	-27.2%	-6%	-15.4%	–
–	–	–	–	3.1	2.6	2.4	O=C(c1ccc(OCCNC(=O)C2CCCCC2)cc1)c1c(-c2ccc(O)cc2)sc2cc(O)ccc12 [Compound 21]	–	–	–	–
0.01 nM	–	–	–	–	–	–	CC(C)(C)C(=O)N1CCCCC1COc1ccc(C(=O)c2c(-c3ccc(O)cc3)sc3cc(O)ccc23)cc1 (centres unmarked) [Compound 22]	–	–	–	Uterine EPO (Vmax) ([3]; 0.1 mg/kg): 3.5; Uterine EPO (Vmax) ([3]; 1 mg/kg): 20.0; Uterine EPO (Vmax) ([3]; 10 mg/kg): 69.5*
4 nM	-4.3%	0.8%	22.3%	1.6	3.8	6.7	CC(C)(C)C(=O)N1CCC(Oc2ccc(C(=O)c3c(-c4ccc(O)cc4)sc4cc(O)ccc34)cc2)CC1 [Compound 23]	-17.4%	-5.2%	–	–
–	-17.5%	–	–	1.3	0.7	13.6	CC(=O)NCCOc1ccc(C(=O)c2c(-c3ccc(O)cc3)sc3cc(O)ccc23)cc1 [Compound 26]	15.8%	–	–	–
–	–	–	–	120.0*	–	–	C#C[C@]1(O)CC[C@H]2[C@@H]3CCc4cc(O)ccc4[C@H]3CC[C@@]21C [ethynyl estradiol, 17α-Ethynyl estradiol, reference compound]	89.6%	–	–	tibia density / bone loss (result in words) (tibia density): prevented this loss; serum cholesterol (result in words) (serum cholesterol; compared to ovariectomized control animals, four day dosing, EE2 orally at 0.1 mg/Kg/day): caused a decrease in serum cholesterol; uterine weight (result in words) (uterus; rat, in vivo, po, 0.1 mg/kg/day): marked stimulatory action on the uterus; eosinophil infiltration into the uterus (result in words) ([2]; ovariectomized rats, measured by assay of eosinophil peroxidase activity): substantial, expected increase in eosinophil infiltration
